According to patent publication US20190046481A1, “TRANSDERMAL FORMULATIONS FOR DELIVERY OF PROPIONIC AND ACETIC ACID NSAIDS, AND THEIR USE IN THE TREATMENT OF NSAID-RESPONSIVE DISEASES AND CONDITIONS” (DELIVRA INC., priority 2015, published 2019):
Like-named read-outs stand apart in the source and are kept apart here.

Experiments:
in vivo [1] = settings: for concentration at 7 days / Synovial Fluid drug concentration: dog, in vivo
Excerpt: Baseline synovial fluid was collected from untreated canine subjects. […] Synovial fluid was collected from stifle or shoulder joints.
Error bars depicted standard error of the mean.

[2] = for Serum drug concentration: dog, in vivo
Excerpt: (§1) 12 dogs with radiographic evidence of osteoarthritis (OA) were utilized to compare the concentration of ibuprofen in both blood and synovial fluid following transdermal delivery of ibuprofen formulated in base formulation and oral delivery in capsules. The 12 dogs were randomly divided into two groups of six subjects; one group received the oral positive treatment control and the other group received the transdermal treatment. The treatment cycle consisted of six days twice daily followed by a period of seven days devoid of treatment. Blood and synovial fluid samples (from both stifles and shoulders) were collected on the last (sixth) day of drug application and on the last (seventh) day of the washout period.
(§2) Test article: 1.5% (w/w) ibuprofen in base formulation (4); ˜1 g gel per shoulder joint twice daily (i.e. 15 mg ibuprofen per shoulder joint twice daily). Control article: base formulation; ˜1 g gel per shoulder joint twice daily. Positive Control: 30 mg ibuprofen in capsule PO twice daily.
(§3) Whole blood and synovial fluid samples were collected from the dogs 60 mins post treatment on the 7th day, and additional samples were collected after a 7 day washout. Baseline synovial fluid was collected from untreated canine subjects. Synovial fluid was collected under sedation (medetomidine (0.01 mg/kg) and butorphenol (0.1 mg/kg) IV). The fluid was collected by arthrocentesis into the joint following surgical preparation of the area. Synovial fluid was collected from stifle or shoulder joints.

in vivo [3] = settings: dog
Excerpt: as §1, §2, §3

[4] = system: aged Beagle dogs with radiographic evidence of osteoarthritis; assay: Modified canine brief pain inventory questionnaire in aged dogs with osteoarthritis; format: in vivo; settings: test day 5; for cumulative pain score compared to baseline: about 1.5 hours after administration
Procedure: This study used a blinded parallel group design with a total of eighteen (18) aged Beagle dogs greater than six years of age with radiographic evidence of osteoarthritis. The dogs were randomized to three groups of six subjects balanced on baseline pain levels determined using a modified canine brief pain inventory questionnaire in which a technician evaluated levels of pain and functional impairment in a standardized obstacle test over two baseline days. […] Dogs were tested on the modified canine brief pain inventory questionnaire daily over 7 days approximately 1.5 hours following administration of their respective treatments. Over the subsequent five test days, the same treatment doses were administered twice daily (i.e., doubling the daily dose), except that a loading dose was administered in the morning of the first day, which consisted of twice the daily dose level used initially (i.e., triple initial dose on the first day). The technicians assessing pain and function with the questionnaire were blinded to treatment conditions. Twice daily observations were conducted for the duration of the study.
Transdermal and oral naproxen were evaluated compared to a negative control as described in the Study Design. […] Questionnaire testing occurred approximately 1.5 hours following the morning dose administration of the test compounds. The two most affected joints of each subject were shaved prior to the first day of drug administration in all treatment groups.
Subjects were assessed on a pain questionnaire once daily on test days. […] Specifically, the ability of each dog to walk, trot, gallop, rear, jump over a low obstacle, climb and descend stairs, jump down from a perch and general activity was evaluated in addition to a subjective evaluation of pain during evaluation of each function. […]
The data consisted of whole number scored for 13 questions assessing measures of both pain (0-2) and functional impairment (0-4), as well as an overall pain and function question (0-4). A cumulative pain and functional impairment score was calculated from all […] for both the pain and functional impairment measures on a daily basis as applicable. […] Subsequently, difference from the baseline scores were calculated for the fifth test day at each dose and subjected to a similar RMANOVA analysis. […]
The dogs were randomized to three groups of six subjects based on mean baseline pain levels determined using a modified canine brief pain inventory questionnaire over two baseline days. […] Pain was evaluated using the pain questionnaire, which was administered approximately 1.5 hours following administration of their respective treatments. […] Data from the fifth treatment day at each dose compared to baseline was statistically evaluated.

[5] = Naproxen quantification in canine sera (LC-MS/MS); format: in vivo, Beagle dogs; settings: both sexes, Beagle, dog, serum, oral, mean+/−SEM
Procedure: A 1 mg/mL stock solution of d3-naproxen was prepared in dimethyl sulfoxide. […] A solution of 200 ng/mL of d3-naproxen was prepared by adding 4 μL of 50 μg/mL solution of d3-naproxen to 996 μL methanol/water (70:30) (stock solution B).
Isocratic chromatographic separation was performed on a Zorbax Eclipse XDB-C18 column (150×4.6 mm I.D., 5 μm particle size, Agilent, Santa Clara, Calif., USA, SN USKH095544) with a XDB-C18 guard column (12.5×4.6 mm I.D., μm particle size, Agilent, Santa Clara, Calif., USA, SN USLE034730) using a mobile phase of acetonitrile/0.02 M NH4OAc (pH=4.00) (70:30) at a flow rate of 0.500 mL/min for 6 min. […] There was a post time of 0.10 min. The column temperature was 40° C. and the autosampler temperature was maintained at 4° C. The sample injection volume was 10 μL. A 4000 Q trap from AB Sciex Instruments equipped with an electrospray ionization (ES1) was used in the negative ion mode with multiple reaction monitoring (MRM) for the quantitative analysis. Nitrogen was used as the collision gas and the curtain gas. […] Analytical data were acquired and quantification processing was performed by using Analyst software.
Six aged Beagle dogs (>6 years) of both sexes with quantified radiographic evidence of osteoarthritis were used for the study. […]

[6] = Dose 2 (high dose, twice daily)

**Q.** For `CC(C)Cc1ccc(C(C)C(=O)O)cc1` (centres unmarked) [Ibuprofen], which concentration at 7 days (in vivo [1]) is on record?
**A.** Its concentration at 7 days is 58.5 ng/mL.

**Q.** What about the “Synovial Fluid drug concentration” value (in vivo [1]; 60 min) of the same compound?
**A.** Its value is 1,711 (±828) ng/mL.

**Q.** What about the “Synovial Fluid drug concentration” value (in vivo [1]; 7 days) of the same compound?
**A.** The value was 31 (±21)^□ ng/mL.

**Q.** What about the concentration at 7 days (in vivo [1]; po) of the same compound?
**A.** The concentration at 7 days was 8.5 ng/mL.

**Q.** What about the “Synovial Fluid drug concentration” value (in vivo [1]; po, 60 min) of the same compound?
**A.** Its value is 2,065 (±1,070) ng/mL.

**Q.** And the “Synovial Fluid drug concentration” value (in vivo [1]; po, 7 days)?
**A.** The value was 5 (±3)^□ ng/mL.

**Q.** What about the “reduction of drug by a one week washout period” value (in vivo [1]; synovial fluid, oral or transdermal) of the same compound?
**A.** Its value is > 95%.

**Q.** What about the Serum drug concentration ([2]; 60 min) of the same compound?
**A.** The Serum drug concentration was 2,904 (±1,212) ng/mL.

**Q.** And the Serum drug concentration ([2]; 7 days)?
**A.** Its Serum drug concentration is 59 (±38)^□ ng/mL.

**Q.** What about the Serum drug concentration ([2]; po, 60 min) of the same compound?
**A.** The Serum drug concentration was 15,420 (±3,450) ng/mL.

**Q.** And the Serum drug concentration ([2]; po, 7 days)?
**A.** Its Serum drug concentration is 9 (±4)^□ ng/mL.

**Q.** And the “reduction of circulating drug by a one week washout period” value ([2]; serum, oral or transdermal)?
**A.** The value was > 95%.

**Q.** What about the concentration at 7 days (in vivo [3]) of the same compound?
**A.** Its concentration at 7 days is 58.5 ng/mL.

**Q.** What about the concentration at 7 days (in vivo [3]; po) of the same compound?
**A.** Its concentration at 7 days is 8.5 ng/mL.

**Q.** Which “cumulative pain score difference from mean baseline compared to negative control” value ([4]; Dose 1 (low dose, once daily)) does the source give for `COc1ccc2cc([C@H](C)C(=O)O)ccc2c1` [oral naproxen, Naproxen] here?
**A.** Its value is “reduced pain at only the low dose”.

**Q.** What about the “cumulative pain score compared to baseline” value ([4]; Dose 1 (low dose, once daily)) of the same compound?
**A.** Its value is “significant decrease from baseline”.

**Q.** What about the “cumulative pain score difference from mean baseline compared to negative control” value [4, 6] of the same compound?
**A.** Its value is “reduced pain at only the low dose”.

**Q.** What about the “cumulative pain score compared to baseline” value [4, 6] of the same compound?
**A.** Its value is “reduced measures of pain at only the low dose”.

**Q.** What about the concentration at 60 min ([5]; capsule PO once daily for seven days, 60 minutes post administration) of the same compound?
**A.** The concentration at 60 min was 102000 ng/mL.

**Q.** And the concentration at 7 days ([5]; seven day washout)?
**A.** Its concentration at 7 days is 16200 ng/mL.
